Measurements published in patent US20250320213A1, “Nitrogen-Containing Heterocyclic Compounds” (Pfizer Inc., priority 2024, published 2025).

Each compound was assayed against T1, STAT6 (Homo sapiens, UniProt P42226) (assay: STAT6 Reporter Luciferase Assay (IL-13 stimulated HaCaT keratinocyte NanoLuc reporter cells)). Conditions: IL-13 stimulated HaCaT STAT6 NanoLuc reporter cells; read-out: Reporter EC50.
T1 construct: stably transfected HaCaT keratinocyte cell line, which expresses NanoLuc luciferase reporter gene under the transcriptional control of the STAT6 responsive promoter; endogenous in cells; host or cells: HaCaT keratinocyte reporter cell line (stably transfected with a NanoLuc reporter)
T1 sequence (P42226 1-847): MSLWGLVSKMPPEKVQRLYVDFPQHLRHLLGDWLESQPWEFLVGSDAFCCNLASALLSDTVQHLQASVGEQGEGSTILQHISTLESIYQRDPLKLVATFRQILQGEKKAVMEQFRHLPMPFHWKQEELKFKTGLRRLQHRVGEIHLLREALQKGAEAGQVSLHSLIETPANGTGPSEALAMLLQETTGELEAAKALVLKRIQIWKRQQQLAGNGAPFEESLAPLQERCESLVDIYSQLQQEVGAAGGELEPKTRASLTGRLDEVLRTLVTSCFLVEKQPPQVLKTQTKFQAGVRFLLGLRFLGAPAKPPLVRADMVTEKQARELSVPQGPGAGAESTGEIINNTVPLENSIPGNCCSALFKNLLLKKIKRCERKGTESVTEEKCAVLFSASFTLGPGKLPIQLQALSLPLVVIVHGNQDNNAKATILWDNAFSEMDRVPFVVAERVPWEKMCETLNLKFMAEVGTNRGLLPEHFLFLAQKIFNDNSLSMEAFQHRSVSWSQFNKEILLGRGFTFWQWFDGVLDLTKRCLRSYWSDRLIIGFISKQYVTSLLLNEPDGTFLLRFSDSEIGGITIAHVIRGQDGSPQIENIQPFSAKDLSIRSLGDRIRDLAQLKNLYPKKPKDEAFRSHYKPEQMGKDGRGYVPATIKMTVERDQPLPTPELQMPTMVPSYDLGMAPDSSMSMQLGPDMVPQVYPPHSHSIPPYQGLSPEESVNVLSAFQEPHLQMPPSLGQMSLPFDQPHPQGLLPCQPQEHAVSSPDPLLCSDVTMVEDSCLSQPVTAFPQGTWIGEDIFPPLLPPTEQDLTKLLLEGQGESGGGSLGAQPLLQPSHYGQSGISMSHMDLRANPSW
Assay type: cell-based
How it was run: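 IL-13 (0.12 nM, 4 h) stimulated STAT6 reporter activity in HaCaT cells after a 2 h compound pre-incubation; NanoLuc signal was measured.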

Row | EC50 [nM] | Structure (SMILES)
1 | 352 | CCOC1CN(C(=O)c2ccc(N3CCc4c(c(C(=O)NCc5ccc(NC(=O)N(C)C)cc5)nn4C(C)C)C3)nc2)C1 [Example 242, N-(4-(3,3-dimethylureido)benzyl)-5-(5-(3-ethoxyazetidine-1-carbonyl)pyridin-2-yl)-1-isopropyl-4,5,6,7-tetrahydro-1H-pyrazolo[4,3-c]pyridine-3-carboxamide]
2 | 196 | CC(C)n1nc(C(=O)NCc2ccc(NC(=O)N(C)C)cc2)c2c1CCN(c1ccc(C(=O)N3CC(C)(O)C3)cn1)C2 [Example 244, N-(4-(3,3-dimethylureido)benzyl)-5-(5-(3-hydroxy-3-methylazetidine-1-carbonyl)pyridin-2-yl)-1-isopropyl-4,5,6,7-tetrahydro-1H-pyrazolo[4,3-c]pyridine-3-carboxamide]
3 | 1640 | CC(C)n1nc(C(=O)NCc2ccc(NC(=O)N(C)C)cc2)c2c1CCN(c1ccc(C(=O)N3CC4(COCC(=O)N4)C3)cn1)C2 [Example 288, N-(4-(3,3-dimethylureido)benzyl)-1-isopropyl-5-(5-(6-oxo-8-oxa-2,5-diazaspiro[3.5]nonane-2-carbonyl)pyridin-2-yl)-4,5,6,7-tetrahydro-1H-pyrazolo[4,3-c]pyridine-3-carboxamide]
4 | 312 | CC(C)n1nc(C(=O)NCc2ccc(NC(=O)N(C)C)cc2)c2c1CCN(c1ccc(C(=O)N3C[C@H]4COC[C@H]4C3)cn1)C2 [Example 289, N-(4-(3,3-dimethylureido)benzyl)-5-(5-((3aR,6aS)-hexahydro-1H-furo[3,4-c]pyrrole-5-carbonyl)pyridin-2-yl)-1-isopropyl-4,5,6,7-tetrahydro-1H-pyrazolo[4,3-c]pyridine-3-carboxamide]
5 | 793 | CC(C)n1nc(C(=O)NCc2ccc(NC(=O)N(C)C)cc2)c2c1CCN(c1ccc(C(=O)N3CC[C@H](C#N)C3)cn1)C2 [Example 291, (S)-5-(5-(3-cyanopyrrolidine-1-carbonyl)pyridin-2-yl)-N-(4-(3,3-dimethylureido)benzyl)-1-isopropyl-4,5,6,7-tetrahydro-1H-pyrazolo[4,3-c]pyridine-3-carboxamide]
6 | 990 | CC(=O)NC1CN(C(=O)c2ccc(N3CCc4c(c(C(=O)NCc5ccc(NC(=O)N(C)C)cc5)nn4C(C)C)C3)nc2)C1 [Example 292, 5-(5-(3-acetamidoazetidine-1-carbonyl)pyridin-2-yl)-N-(4-(3,3-dimethylureido)benzyl)-1-isopropyl-4,5,6,7-tetrahydro-1H-pyrazolo[4,3-c]pyridine-3-carboxamide]
7 | 100 | CC(C)n1nc(C(=O)NCc2ccc(NC(=O)N(C)C)cc2)c2c1CCN(c1ccc(C(=O)N3CC(=O)N(C)[C@H](C)C3)cn1)C2 [Example 293, (R)-5-(5-(3,4-dimethyl-5-oxopiperazine-1-carbonyl)pyridin-2-yl)-N-(4-(3,3-dimethylureido)benzyl)-1-isopropyl-4,5,6,7-tetrahydro-1H-pyrazolo[4,3-c]pyridine-3-carboxamide]
8 | 961 | CC(C)n1nc(C(=O)NCc2ccc(NC(=O)N(C)C)cc2)c2c1CCN(c1ccc(C(=O)N3CC(=O)NC(C)(C)C3)cn1)C2 [Example 294, 5-(5-(3,3-dimethyl-5-oxopiperazine-1-carbonyl)pyridin-2-yl)-N-(4-(3,3-dimethylureido)benzyl)-1-isopropyl-4,5,6,7-tetrahydro-1H-pyrazolo[4,3-c]pyridine-3-carboxamide]
9 | 310 | CC(C)n1nc(C(=O)NCc2ccc(NC(=O)N(C)C)cc2)c2c1CCN(c1ccc(C(=O)N3CCC(O)CC3)cn1)C2 [Example 295, N-(4-(3,3-dimethylureido)benzyl)-5-(5-(4-hydroxypiperidine-1-carbonyl)pyridin-2-yl)-1-isopropyl-4,5,6,7-tetrahydro-1H-pyrazolo[4,3-c]pyridine-3-carboxamide]
10 | 523 | CC(=O)N1C[C@@H]2CN(C(=O)c3ccc(N4CCc5c(c(C(=O)NCc6ccc(NC(=O)N(C)C)cc6)nn5C(C)C)C4)nc3)C[C@@H]2C1 [Example 296, 5-(5-((3aR,6aS)-5-acetyloctahydropyrrolo[3,4-c]pyrrole-2-carbonyl)pyridin-2-yl)-N-(4-(3,3-dimethylureido)benzyl)-1-isopropyl-4,5,6,7-tetrahydro-1H-pyrazolo[4,3-c]pyridine-3-carboxamide]
11 | 225 | CC(C)n1nc(C(=O)NCc2ccc(NC(=O)N(C)C)cc2)c2c1CCN(c1ccc(C(=O)N3CC[C@@H](C#N)C3)cn1)C2 [Example 297, (R)-5-(5-(3-cyanopyrrolidine-1-carbonyl)pyridin-2-yl)-N-(4-(3,3-dimethylureido)benzyl)-1-isopropyl-4,5,6,7-tetrahydro-1H-pyrazolo[4,3-c]pyridine-3-carboxamide]
12 | 2540 | CC(C)n1nc(C(=O)NCc2ccc(NC(=O)N(C)C)cc2)c2c1CCN(c1ccc(C(=O)N3CC4(CCC(=O)N4)C3)cn1)C2 [Example 298, N-(4-(3,3-dimethylureido)benzyl)-1-isopropyl-5-(5-(6-oxo-2,5-diazaspiro[3.4]octane-2-carbonyl)pyridin-2-yl)-4,5,6,7-tetrahydro-1H-pyrazolo[4,3-c]pyridine-3-carboxamide]
13 | 241 | CC(=O)N1[C@H](C)CN(C(=O)c2ccc(N3CCc4c(c(C(=O)NCc5ccc(NC(=O)N(C)C)cc5)nn4C(C)C)C3)nc2)C[C@@H]1C [Example 299, 5-(5-((3S,5R)-4-acetyl-3,5-dimethylpiperazine-1-carbonyl)pyridin-2-yl)-N-(4-(3,3-dimethylureido)benzyl)-1-isopropyl-4,5,6,7-tetrahydro-1H-pyrazolo[4,3-c]pyridine-3-carboxamide]
14 | 1420 | CC(C)n1nc(C(=O)NCc2ccc(NC(=O)N(C)C)cc2)c2c1CCN(c1ccc(C(=O)N3CC4(CC(=O)N(C)C4)C3)cn1)C2 [Example 300, N-(4-(3,3-dimethylureido)benzyl)-1-isopropyl-5-(5-(6-methyl-7-oxo-2,6-diazaspiro[3.4]octane-2-carbonyl)pyridin-2-yl)-4,5,6,7-tetrahydro-1H-pyrazolo[4,3-c]pyridine-3-carboxamide]
15 | 2 | [2H]C([2H])([2H])N(C(=O)Nc1ccc(CNC(=O)c2nn(C(C)C)c3c2CN(c2ccc(C(=O)N(C)C)cc2)C[C@@H]3C)cc1)C([2H])([2H])[2H] [Example 315, (S)-N-(4-(3,3-bis(methyl-d3)ureido)benzyl)-5-(4-(dimethylcarbamoyl)phenyl)-1-isopropyl-7-methyl-4,5,6,7-tetrahydro-1H-pyrazolo[4,3-c]pyridine-3-carboxamide]
16 | 710 | CC(C)n1nc(C(=O)NCc2ccc(NC(=O)N(C)C)cc2)c2c1CCN(c1ccc(C(=O)N3CC(=O)N[C@H](C)C3)cn1)C2 [Example 325, (R)-N-(4-(3,3-dimethylureido)benzyl)-1-isopropyl-5-(5-(3-methyl-5-oxopiperazine-1-carbonyl)pyridin-2-yl)-4,5,6,7-tetrahydro-1H-pyrazolo[4,3-c]pyridine-3-carboxamide]
17 | 1280 | CC(C)n1nc(C(=O)NCc2ccc(NC(=O)N(C)C)cc2)c2c1CCN(c1ccc(C(=O)N3CC4(CCO4)C3)cn1)C2 [Example 326, 5-(5-(1-oxa-6-azaspiro[3.3]heptane-6-carbonyl)pyridin-2-yl)-N-(4-(3,3-dimethylureido)benzyl)-1-isopropyl-4,5,6,7-tetrahydro-1H-pyrazolo[4,3-c]pyridine-3-carboxamide]
18 | 3200 | CC(C)n1nc(C(=O)NCc2ccc(NC(=O)N(C)C)cc2)c2c1CCN(c1ccc(C(=O)N3CC4(CNC(=O)C4)C3)cn1)C2 [Example 327, N-(4-(3,3-dimethylureido)benzyl)-1-isopropyl-5-(5-(7-oxo-2,6-diazaspiro[3.4]octane-2-carbonyl)pyridin-2-yl)-4,5,6,7-tetrahydro-1H-pyrazolo[4,3-c]pyridine-3-carboxamide]
19 | 266 | CC(C)n1nc(C(=O)NCc2ccc(NC(=O)N(C)C)cc2)c2c1CCN(c1ccc(C(=O)N3CC(=O)NCC3(C)C)cn1)C2 [Example 328, 5-(5-(2,2-dimethyl-5-oxopiperazine-1-carbonyl)pyridin-2-yl)-N-(4-(3,3-dimethylureido)benzyl)-1-isopropyl-4,5,6,7-tetrahydro-1H-pyrazolo[4,3-c]pyridine-3-carboxamide]

Row | Structure (SMILES) | EC50 [nM]
20 | CC(C)n1nc(C(=O)NCc2ccc(NC(=O)N(C)C)cc2)c2c1CCN(c1ccc(C(=O)N3CC4CC(C3)C4O)cn1)C2 (centres unmarked) [Example 243, N-(4-(3,3-dimethylureido)benzyl)-5-(5-(6-hydroxy-3-azabicyclo[3.1.1]heptane-3-carbonyl)pyridin-2-yl)-1-isopropyl-4,5,6,7-tetrahydro-1H-pyrazolo[4,3-c]pyridine-3-carboxamide] | 1650
